# From ChEMBL document CHEMBL3885861, “Open TG-GATES”
# Species on record: Rattus norvegicus
# Assay: Open TG-GATES - Regimen: Single
# Assay type: toxicity, organism-based, Sprague-Dawley
# Design: regimen Single, gender Male, age 6 weeks
# Details: in vivo, po, route gavage; for APTT / Bas / Eos / Fbg / Hb / Ht / Lym / MCH / MCHC / MCV / Mono / Neu / PT / Plat / RBC / Ret / WBC: tissue Blood; for KIDNEY_L / KIDNEY_R / KIDNEY_TOTAL: tissue Kidney; for ALP / ALT / AST / CRE / Cl / DBIL / GLC / IP / K / LDH / Na / PL / RALB / TBIL / TC / TG / TP / gamma-GTP: tissue Plasma
smiles,measurement,setting,value
COc1cc2c(c(OC)c1OC)-c1ccc(OC)c(=O)cc1[C@@H](NC(C)=O)CC2 [COLCHICINE],APTT,"2 mg/kg, 9 h, dose level Low",16.2 s
same,Bas,"2 mg/kg, 9 h, dose level Low",0%
same,Eos,"2 mg/kg, 9 h, dose level Low",0.8%
same,Fbg,"2 mg/kg, 9 h, dose level Low",212.4 mg/dL
same,Hb,"2 mg/kg, 9 h, dose level Low",12.9 g/dL
same,Ht,"2 mg/kg, 9 h, dose level Low",39%
same,Lym,"2 mg/kg, 9 h, dose level Low",72.2%
same,MCH,"2 mg/kg, 9 h, dose level Low",21.2 pg
same,MCHC,"2 mg/kg, 9 h, dose level Low",33.1%
same,MCV,"2 mg/kg, 9 h, dose level Low",64.1 fL
same,Mono,"2 mg/kg, 9 h, dose level Low",11.8%
same,Neu,"2 mg/kg, 9 h, dose level Low",15.6%
same,PT,"2 mg/kg, 9 h, dose level Low",11.7 s
same,Plat,"2 mg/kg, 9 h, dose level Low",114.1 x10_4/uL
same,RBC,"2 mg/kg, 9 h, dose level Low",609.6 x10_4/ul
same,Ret,"2 mg/kg, 9 h, dose level Low",9.8%
same,WBC,"2 mg/kg, 9 h, dose level Low",101.3 x10_2/uL
same,KIDNEY_L,"2 mg/kg, 9 h, dose level Low",1 g
same,KIDNEY_R,"2 mg/kg, 9 h, dose level Low",1 g
same,KIDNEY_TOTAL,"2 mg/kg, 9 h, dose level Low",2 g
same,ALP,"2 mg/kg, 9 h, dose level Low",888 IU/L
same,ALT,"2 mg/kg, 9 h, dose level Low",47.6 IU/L
same,AST,"2 mg/kg, 9 h, dose level Low",93.4 IU/L
same,CRE,"2 mg/kg, 9 h, dose level Low",0.5 mg/dL
same,Cl,"2 mg/kg, 9 h, dose level Low",105.2 meq/L
same,DBIL,"2 mg/kg, 9 h, dose level Low",0.072 mg/dL
same,GLC,"2 mg/kg, 9 h, dose level Low",189.2 mg/dL
same,IP,"2 mg/kg, 9 h, dose level Low",9.4 mg/dL
same,K,"2 mg/kg, 9 h, dose level Low",4.8 meq/L
same,LDH,"2 mg/kg, 9 h, dose level Low",115 IU/L
same,Na,"2 mg/kg, 9 h, dose level Low",137.4 meq/L
same,PL,"2 mg/kg, 9 h, dose level Low",130 mg/dL
same,RALB,"2 mg/kg, 9 h, dose level Low",3.7 g/dL
same,TBIL,"2 mg/kg, 9 h, dose level Low",0.4 mg/dL
same,TC,"2 mg/kg, 9 h, dose level Low",80.4 mg/dL
same,TG,"2 mg/kg, 9 h, dose level Low",36.2 mg/dL
same,TP,"2 mg/kg, 9 h, dose level Low",5.4 g/dL
same,gamma-GTP,"2 mg/kg, 9 h, dose level Low",1.4 IU/L
same,TERMINAL_BW,"2 mg/kg, 24 h, dose level Low",231.9 g
same,APTT,"2 mg/kg, 24 h, dose level Low",17.8 s
same,Bas,"2 mg/kg, 24 h, dose level Low",0%
same,Eos,"2 mg/kg, 24 h, dose level Low",1%
same,Fbg,"2 mg/kg, 24 h, dose level Low",213 mg/dL
same,Hb,"2 mg/kg, 24 h, dose level Low",12.8 g/dL
same,Ht,"2 mg/kg, 24 h, dose level Low",38.5%
same,Lym,"2 mg/kg, 24 h, dose level Low",79.6%
same,MCH,"2 mg/kg, 24 h, dose level Low",22.1 pg
same,MCHC,"2 mg/kg, 24 h, dose level Low",33.3%
same,MCV,"2 mg/kg, 24 h, dose level Low",66.4 fL
same,Mono,"2 mg/kg, 24 h, dose level Low",7.6%
same,Neu,"2 mg/kg, 24 h, dose level Low",11.8%
same,PT,"2 mg/kg, 24 h, dose level Low",11.3 s
same,Plat,"2 mg/kg, 24 h, dose level Low",108 x10_4/uL
same,RBC,"2 mg/kg, 24 h, dose level Low",580.6 x10_4/ul
same,Ret,"2 mg/kg, 24 h, dose level Low",9.1%
same,WBC,"2 mg/kg, 24 h, dose level Low",127.4 x10_2/uL
same,KIDNEY_L,"2 mg/kg, 24 h, dose level Low",1.1 g
same,KIDNEY_R,"2 mg/kg, 24 h, dose level Low",1.1 g
same,KIDNEY_TOTAL,"2 mg/kg, 24 h, dose level Low",2.1 g
same,ALP,"2 mg/kg, 24 h, dose level Low",972.6 IU/L
same,ALT,"2 mg/kg, 24 h, dose level Low",37.2 IU/L
same,AST,"2 mg/kg, 24 h, dose level Low",69 IU/L
same,CRE,"2 mg/kg, 24 h, dose level Low",0.6 mg/dL
same,Cl,"2 mg/kg, 24 h, dose level Low",103.4 meq/L
same,DBIL,"2 mg/kg, 24 h, dose level Low",0.05 mg/dL
same,GLC,"2 mg/kg, 24 h, dose level Low",201.2 mg/dL
same,IP,"2 mg/kg, 24 h, dose level Low",6.6 mg/dL
same,K,"2 mg/kg, 24 h, dose level Low",4.4 meq/L
same,LDH,"2 mg/kg, 24 h, dose level Low",113 IU/L
same,Na,"2 mg/kg, 24 h, dose level Low",139 meq/L
same,PL,"2 mg/kg, 24 h, dose level Low",156.6 mg/dL
same,RALB,"2 mg/kg, 24 h, dose level Low",3.8 g/dL
same,TBIL,"2 mg/kg, 24 h, dose level Low",0.4 mg/dL
same,TC,"2 mg/kg, 24 h, dose level Low",83.6 mg/dL
same,TG,"2 mg/kg, 24 h, dose level Low",125.8 mg/dL
same,TP,"2 mg/kg, 24 h, dose level Low",5.7 g/dL
same,gamma-GTP,"2 mg/kg, 24 h, dose level Low",1 IU/L
same,TERMINAL_BW,"5 mg/kg, 3 h, dose level Middle",224.6 g
